Blank lines part the entries; values can stand above or below the compound they belong to. Peptide text beside a SMILES is read from it.
Experiments:
[1] = cited from earlier work; for Kd, apparent Sweetener/Receptor dissociation constant / Rm, Maximal Response: from R = Rm x C/(kd + C)
human taste testers [2] = test: Sensory flavor profile analysis, Example 3.3: KCl, MgCl2 or CaCl2 individually at 30 mM with REBA in Citric Acid Buffer (Table 9); type: in vivo; settings: used individually at 30 mM
Experimental: (§1) Representative formulations within the scope of the disclosed formulations were prepared and subjected to sensory testing by the methods described above in the section entitled Testing Methodology, where formulations are rated on a 0-15 scales for the Taste Attributes: Sweetness Intensity (SI), Saltiness Intensity (SaI), Sourness Intensity (SoI), Bitterness Intensity (BI), Astringency Intensity (AI), Body/Mouthfeel Intensity (B/MF) and Sweetness Linger (SL). And, in addition, formulations are rated for the additional Taste Attributes of Sweetness Appearance Time (AT) and Sweetness Desensitization (SD). AT was rated by the verbal descriptors Rapid (R), Delay (D) or SD (Significant Delay) and SD was rated by the verbal descriptors None (N), Slight (S) or Medium (M). In sensory test sessions, the number of samples evaluated was limited to 6. In the initial phase of formulation screening, testing was carried out in triplicate with a single subject extensively experienced in the technique of flavor profile analysis. Following formulation screening, testing on promising formulations was carried out with a trained panel as described above. […]
This study assessed the effect of K^+, Mg^2+, and Ca^2+ (from KCl, MgCl2, and CaCl2 salts) used individually at 30 mM in a disclosed Taste Modulator Composition on the Appearance Time (AT), Sweetness Linger (SL), Body/Mouthfeel (B/MF) and Sweetness Desensitization (SD) of REBA in Citric Acid Buffer.

human taste testers [3] = test: Sensory flavor profile analysis, Example 3.1: KCl, MgCl2 or CaCl2 individually at <12 mM with REBA in Citric Acid Buffer (Table 7); type: in vivo; settings: used individually at <12 mM
Experimental: as §1
This study assessed the effect of K^+, Mg^2+, and Ca^2+ (from KCl, MgCl2, and CaCl2 salts) used individually in a disclosed Taste Modulator Composition on the Appearance Time (AT), Sweetness Linger (SL), Body/Mouthfeel (B/MF) and Sweetness Desensitization (SD) of REBA in Citric Acid Buffer at moderate concentrations (i.e., <12 mM).

human taste testers [4] = test: Sensory flavor profile analysis, Example 3.2: KCl, MgCl2 or CaCl2 individually at 20 mM with REBA in Citric Acid Buffer (Table 8); type: in vivo; settings: used individually at 20 mM
Experimental: as §1
This study assessed the effect of K^+, Mg^2+, and Ca^2+ (from KCl, MgCl2, and CaCl2 salts) used individually at 20 mM in a disclosed Taste Modulator Composition on the Appearance Time (AT), Sweetness Linger (SL), Body/Mouthfeel (B/MF) and Sweetness Desensitization (SD) of REBA in Citric Acid Buffer.

[5] = cited from earlier work; for sweetness potency: relative to sucrose; for sweetness potency (sensory evaluations): more potent than sucrose, Crammer and Ikan 1986
human taste testers [6] = test: Sensory Testing Methodology: Sweetness Linger of reference standards in water; type: in vivo; settings: 10% Sucrose and 500 PPM REBA, perceived sweetness intensity @ 120 sec
From the text: In various aspects, the present disclosure pertains to methods of testing the disclosed sweetener compositions, e.g., a sensory methodology or method for sweetener evaluation. In a particular aspect, the sensory methodology used is known as a “Flavor Profile Analysis” as has been previously described (see: B. T. Carr, S. D. Pecore, K. M. Gibes and G. E. DuBois, “Sensory Methods for Sweetener Evaluation”, Chapter 11 In Flavor Measurement, C. T. Ho and C. H. Manley, Eds., Marcel Dekker, New York, N.Y., 1993). The full set of sensory parameters that are assessed in the sensory testing method are: (a) Sweetness Intensity (which can be abbreviated in tables herein as “S”); (b) Sourness Intensity ((which can be abbreviated in tables herein as “So”); (c) Saltiness Intensity (which can be abbreviated in tables herein as “Sa”); (d) Bitterness Intensity (which can be abbreviated in tables herein as “B”); (e) Body/Mouthfeel Intensity (which can be abbreviated in tables herein as “B/MF”); (f) Astringency Intensity (which can be abbreviated in tables herein as “A”); (g) Sweetness Linger (which can be abbreviated in tables herein as “SL”); (h) Sweetness Appearance Time (which can be abbreviated in tables herein as “AT”); and (i) Sweetness Desensitization (which can be abbreviated in tables herein as “SD”). […]

[7] = Concentration/Response (C/R) function of sweeteners; type: in vivo
From the text: In discussion of mid-calorie beverages, it is useful to describe a suitable methodology for definition of the compositions of such caloric/non-caloric sweetener blends. One such system is a previously described Concentration/Response (C/R) function useful for many caloric as well as non-caloric sweeteners (see G. E. DuBois, et al., “A Systematic Study of Concentration-Response Relationships of Sweeteners”, In Sweeteners: Discovery, Molecular Design and Chemoreception, D E Walters, F Orthoefer and G E DuBois, Eds., ACS Symposium Series 450, ACS Books, Washington, D.C., 1990).
The following example serves to show how the C/R function can be utilized in design of a mid-caloric beverage. Assume that the objective is to formulate a 50% calorie-reduced beverage with a blend of sucrose and REBA, where the original full-calorie beverage contained 10.0% sucrose. Assuming there is no synergy between sucrose and REBA, such a blend would require 5.0% sucrose and a concentration of REBA equivalent to 5.0% sucrose in sweetness. The requisite concentration (C) of REBA is easily calculated from its C/R function R=10C/(200+C) as follows: 5.0=10×C/(200+C); and C=200 mg/L.

[8] = Dissolution of solid REBD in CAB-K buffer, visual inspection; type: physicochemical; settings: 500 PPM in pH 3.1 CAB-K; after standing overnight (about 20 h)

Compound: CC1=CC(=O)[N-]S(=O)(=O)O1.[K+] [Acesulfame-K]
Kd, apparent Sweetener/Receptor dissociation constant [1]: 470 µg/mL
Rm, Maximal Response [1]: 11.6 Sucrose Equivalents of Sweetness

Compound: COC(=O)[C@H](Cc1ccccc1)NC(=O)[C@@H](N)CC(=O)O [Aspartame] (H-Asp-Phe-OMe)
Kd, apparent Sweetener/Receptor dissociation constant [1]: 560 µg/mL
Rm, Maximal Response [1]: 16.0 Sucrose Equivalents of Sweetness

Compound: [Ca+2].[Cl-].[Cl-] [Ca^2+, Calcium Chloride]
effect on the AT, SL, B/MF and SD of REBA (human taste testers [2]): do affect
effect on the AT, SL, B/MF and SD of REBA (human taste testers [3]): did not significantly affect
effect on the AT, SL, B/MF and SD of REBA (human taste testers [4]): modestly affected

Compound: C=C1C[C@@]23CC[C@H]4[C@@](C)(CCC[C@@]4(C)C(=O)O[C@@H]4O[C@H](CO)[C@@H](O)[C@H](O)[C@H]4O)[C@@H]2CC[C@]1(O[C@@H]1O[C@H](CO)[C@@H](O)[C@H](O)[C@H]1O[C@@H]1O[C@@H](C)[C@H](O)[C@@H](O)[C@H]1O)C3 [Dulcoside A]
sweetness potency [5]: 30 times

Compound: [Cl-].[K+] [K^+, Potassium Chloride]
effect on the AT, SL, B/MF and SD of REBA (human taste testers [2]): do affect
effect on the AT, SL, B/MF and SD of REBA (human taste testers [3]): did not significantly affect
effect on the AT, SL, B/MF and SD of REBA (human taste testers [4]): modestly affected

Compound: [Cl-].[Cl-].[Mg+2] [Mg^2+, Magnesium Chloride]
effect on the AT, SL, B/MF and SD of REBA (human taste testers [2]): do affect
effect on the AT, SL, B/MF and SD of REBA (human taste testers [3]): did not significantly affect
effect on the AT, SL, B/MF and SD of REBA (human taste testers [4]): modestly affected

Compound: C=C1C[C@@]23CC[C@H]4[C@@](C)(CCC[C@@]4(C)C(=O)O[C@@H]4O[C@H](CO)[C@@H](O)[C@H](O)[C@H]4O)[C@@H]2CC[C@]1(O[C@@H]1O[C@H](CO)[C@@H](O)[C@H](O[C@@H]2O[C@H](CO)[C@@H](O)[C@H](O)[C@H]2O)[C@H]1O[C@@H]1O[C@H](CO)[C@@H](O)[C@H](O)[C@H]1O)C3 [Rebaudioside A]
SL (Sweetness Linger) (human taste testers [6]): 5
sweetness potency (sensory evaluations) [5]: 350-450 times
sweetness intensity equivalent ([7]; 500 mg/L REBA, from C/R function R=10.0C/(200+C)): 7.14 % sucrose
requisite concentration (C) equivalent to 5.0% sucrose in sweetness ([7]; calculated from C/R function R=10C/(200+C)): 200 mg/L
Kd, apparent Sweetener/Receptor dissociation constant [1]: 200 µg/mL
Rm, Maximal Response [1]: 10 Sucrose Equivalents of Sweetness

appearance of solution [8]: still cloudy
Compound: C=C1C[C@@]23CC[C@H]4[C@@](C)(CCC[C@@]4(C)C(=O)O[C@@H]4O[C@H](CO)[C@@H](O)[C@H](O)[C@H]4O[C@@H]4O[C@H](CO)[C@@H](O)[C@H](O)[C@H]4O)[C@@H]2CC[C@]1(O[C@@H]1O[C@H](CO)[C@@H](O)[C@H](O[C@@H]2O[C@H](CO)[C@@H](O)[C@H](O)[C@H]2O)[C@H]1O[C@@H]1O[C@H](CO)[C@@H](O)[C@H](O)[C@H]1O)C3 [Rebaudioside D]

Compound: C=C1C[C@@]23CC[C@H]4[C@@](C)(CCC[C@@]4(C)C(=O)O[C@@H]4O[C@H](CO)[C@@H](O)[C@H](O)[C@H]4O)[C@@H]2CC[C@]1(O[C@@H]1O[C@H](CO)[C@@H](O)[C@H](O)[C@H]1O[C@@H]1O[C@H](CO)[C@@H](O)[C@H](O)[C@H]1O)C3 [Stevioside]
sweetness potency [5]: 110-270 times

Compound: OC[C@H]1O[C@@](CO)(O[C@H]2O[C@H](CO)[C@@H](O)[C@H](O)[C@H]2O)[C@@H](O)[C@@H]1O [Sucrose, reference compound]
C/R Function ([1]; R in Sucrose Equivalents of Sweetness, C in % (w/v) for sugars, in mg/L for HP sweeteners): R = C

Compound: C[C@H](CC[C@@H](O[C@@H]1O[C@H](CO[C@@H]2O[C@H](CO)[C@@H](O)[C@H](O)[C@H]2O)[C@@H](O)[C@H](O)[C@H]1O[C@@H]1O[C@H](CO)[C@@H](O)[C@H](O)[C@H]1O)C(C)(C)O)[C@H]1CC[C@@]2(C)[C@@H]3CC=C4[C@@H](CC[C@H](O[C@@H]5O[C@H](CO[C@@H]6O[C@H](CO)[C@@H](O)[C@H](O)[C@H]6O)[C@@H](O)[C@H](O)[C@H]5O)C4(C)C)[C@]3(C)[C@H](O)C[C@]12C [mogroside V, mogro-3-O-[β-D-glucopyranosyl (1-6)-β-D-glucopyranoside]-24-O-{[β-D-glucopyranosyl(1-2)]-[?-D-glucopyranosyl(1-6)]-β-D-gluco-pyranoside}]
sweetness ([5]; times cane sugar on a weight basis, estimated): approximately 250 times

Compound: Rebaudioside B
sweetness potency (sensory evaluations) [5]: 300-350 times

Compound: Rebaudioside C
sweetness potency [5]: 40-60 times

Source: patent US10602758B2, “Methods and compositions for improved taste quality” (Almendra Pte. Ltd, priority 2018, dated 2020)
